Source: patent publication US20250059172A1, “INDAZOLE COMPOUND AND PHARMACEUTICAL” (NIPPON SHINYAKU CO., LTD., priority 2021, published 2025)
Where a name gives a salt, the structure may show the parent alone.

Columns and labels:
human mPGES-1 = human mPGES-1 (Homo sapiens (Human), UniProt O14684); experiment: mPGES-1 inhibitory activity test; format: biochemical; settings: for IC50: microsomes of CHO-K1 cells expressing human mPGES-1, PGH2 1 μM, PGE2 by HTRF, read-out: mPGES-1 inhibition (IC50 nM); for inhibition at 0.01 µM: 10 nM test compound; for inhibition at 0.1 µM: 100 nM test compound
Sequence of human mPGES-1 (O14684 whole entry): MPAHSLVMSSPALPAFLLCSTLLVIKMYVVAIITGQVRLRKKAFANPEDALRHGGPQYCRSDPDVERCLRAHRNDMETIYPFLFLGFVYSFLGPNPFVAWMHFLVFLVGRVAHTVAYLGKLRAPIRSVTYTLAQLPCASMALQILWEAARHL
Outline: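 PGE2 formation was quantified by HTRF and reported as percent inhibition at 10 and 100 nM compound or as IC50. The 60-second reaction at 4° C used 1 μM PGH2, after a 20-minute 4° C preincubation of compound (1% DMSO final) with glutathione-supplemented (2.5 mM, pH 7.4) microsomes. The microsomes were from transiently transfected CHO-K1 cells expressing human mPGES-1.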

human A549 cells = experiment: Inhibition test of PGE2 production using human A549 cells; format: cell-based; settings: IL-1β stimulated A549 cells, 24 h, PGE2 by HTRF, read-out: A549 cell inhibition of PGE2 production IC50
Outline: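 A549 cells were preincubated 60 min with compound in RPMI/3% FBS (0.1% DMSO final), then stimulated with IL-1β (5 ng/well) for 24 h at 37°C. PGE2 was measured by HTRF and PGF2a by EIA; activity was normalized to stimulated minus unstimulated controls, and IC50 derived.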

SMILES	IC50 (human mPGES-1) [nM]	IC50 (human A549 cells) [nM]	inhibition at 0.01 µM (human mPGES-1) [%]	inhibition at 0.1 µM (human mPGES-1) [%]
CC(C)(C)C(=O)NCc1ccc(Cl)c(C(=O)Nc2cccc3c2cnn3CCCc2ccccc2)c1 [Example 101, 2-Chloro-5-{[(2,2-dimethylpropanoyl)amino]methyl}-N-[1-(3-phenylpropyl)-1H-indazol-4-yl]benzamide]	4.7	8.1	–	–
CC(C)(C)C(=O)NCc1ccc(Cl)c(C(=O)Nc2cccc3c2cnn3CC2CCC2)c1 [Example 99, 2-Chloro-N-[1-(cyclobutylmethyl)-1H-indazol-4-yl]-5-{[(2,2-dimethylpropanoyl)amino]methyl}benzamide]	1.3	4.1	–	–
COc1ccccc1Cn1ncc2c(NC(=O)c3cc(CNC(=O)C(C)(C)C)ccc3Cl)cccc21 [Example 90, 2-Chloro-5-{[(2,2-dimethylpropanoyl)amino]methyl}-N-[1-(2-methoxybenzyl)-1H-indazol-4-yl]benzamide]	2.2	17.7	–	–
CCn1ncc2c(NC(=O)c3cc(CNC(=O)CC(C)(C)C)ccc3Cl)cccc21 [Example 210, 2-Chloro-5-{[(3,3-dimethylbutanoyl)amino]methyl}-N-(1-ethyl-1H-indazol-4-yl)benzamide]	–	379	64	–
O=C(Nc1cccc2c1cnn2-c1ccc(F)cc1)c1cc(CNC(=O)C2CCCC2)ccc1Cl [Example 152, 2-Chloro-5-{[(cyclopentylcarbonyl)amino]methyl}-N-[1-(4-fluorophenyl)-1H-indazol-4-yl]benzamide]	–	7.6	58	–
O=C(Nc1cccc2c1cnn2-c1ccc(C(F)(F)F)cc1)c1cc(CNC(=O)C2(C(F)(F)F)CC2)ccc1Cl [Example 26, 2-Chloro-5-[({[1-(trifluoromethyl)cyclopropyl]carbonyl}amino)methyl]-N-{1-[4-(trifluoromethyl)phenyl]-1H-indazol-4-yl}benzamide]	1.6	2.3	–	–
COc1ccc(-n2ncc3c(NC(=O)c4cc(CNC(=O)C5(C(F)(F)F)CC5)ccc4Cl)cccc32)cn1 [Example 271, 2-Chloro-N-[1-(6-methoxypyridin-3-yl)-1H-indazol-4-yl]-5-[({[1-(trifluoromethyl)cyclopropyl]carbonyl}amino)methyl]benzamide]	–	3	50	90
CC(C)(C)C(=O)NCc1ccc(Cl)c(C(=O)Nc2cccc3c2cnn3CC2CCCCO2)c1 (centres unmarked) [Example 105, 2-Chloro-5-{[(2,2-dimethylpropanoyl)amino]methyl}-N-[1-(tetrahydro-2H-pyran-2-ylmethyl)-1H-indazol-4-yl]benzamide]	1.3	11.1	–	–
COc1ccccc1-n1ncc2c(NC(=O)c3cc(CNC(=O)C4CC4)ccc3Cl)cccc21 [Example 13, 2-Chloro-5-{[(cyclopropylcarbonyl)amino]methyl}-N-[1-(2-methoxyphenyl)-1H-indazol-4-yl]benzamide]	2	505	–	–
COCc1cncc(-n2ncc3c(NC(=O)c4cc(CNC(=O)C(C)(C)C)ccc4Cl)cccc32)c1 [Example 78, 2-Chloro-5-{[(2,2-dimethylpropanoyl)amino]methyl}-N-{1-[5-(methoxymethyl)pyridin-3-yl]-1H-indazol-4-yl}benzamide hydrochloride]	10.4	9.8	–	–
O=C(Nc1cccc2c1cnn2-c1cccc(C(F)(F)F)c1)c1cc(CNC(=O)C2CC2)ccc1Cl [Example 3, 2-Chloro-5-{[(cyclopropylcarbonyl)amino]methyl}-N-{1-[3-(trifluoromethyl)phenyl]-1H-indazol-4-yl}benzamide]	1.2	0.7	–	–
COc1ccc(-n2ncc3c(NC(=O)c4cc(CNS(=O)(=O)C5CC5)ccc4Cl)cccc32)cn1 [Example 275, 2-Chloro-5-{[(cyclopropylsulfonyl)amino]methyl}-N-[1-(6-methoxypyridin-3-yl)-1H-indazol-4-yl]benzamide]	–	3.9	66	91
O=C(Nc1cccc2c1cnn2-c1cncc(C(F)(F)F)c1)c1cc(CNC(=O)C2CC2)ccc1Cl [Example 11, 2-Chloro-5-{[(cvclopropylcarbonyl)amino]methyl}-N-{1-[5-(trifluoromethyl)pyridin-3-yl]-1H-indazol-4-yl}benzamide]	2.9	3.4	–	–
CC(C)(C)c1ccc(-n2ncc3c(NC(=O)c4cc(CNC(=O)C5CC5)ccc4Cl)cccc32)cc1 [Example 14, N-[1-(4-tert-butylphenyl)-1H-indazol-4-yl]-2-chloro-5-{[(cyclopropylcarbonyl)amino]methyl}benzamide]	1.1	0.4	–	–
COc1cccc(-n2ncc3c(NC(=O)c4cc(CNC(=O)C(C)(C)C)ccc4Cl)cccc32)c1 [Example 49, 2-Chloro-5-{[(2,2-dimethylpropanoyl)amino]methyl}-N-[1-(3-methoxyphenyl)-1H-indazol-4-yl]benzamide]	9.9	0.9	–	–
CC(C)(C)C(=O)NCc1ccc(C(F)(F)F)c(C(=O)Nc2cccc3c2cnn3-c2ccc(C(F)(F)F)nc2)c1 [Example 196, 5-{[(2,2-Dimethylpropanoyl)amino]methyl}-2-(trifluoromethyl)-N-{1-[6-(trifluoromethyl)pyridin-3-yl]-1H-indazol-4-yl}benzamide]	–	2	60	78
O=C(Nc1cccc2c1cnn2-c1ccc(C(F)(F)F)cc1)c1cc(CNC(=O)C2CCCC2)ccc1Cl [Example 30, 2-Chloro-5-{[(cyclopentylcarbonyl)amino]methyl}-N-{1-[4-(trifluoromethyl)phenyl]-1H-indazol-4-yl}benzamide]	5.5	2.6	–	–
O=C(Nc1cccc2c1cnn2-c1ccc(OC(F)(F)F)cc1)c1cc(CNC(=O)C2(C(F)(F)F)CC2)ccc1Cl [Example 116, 2-Chloro-N-{1-[4-(trifluoromethoxy)phenyl]-1H-indazol-4-yl}-5-[({[1-(trifluoromethyl)cyclopropyl]carbonyl}amino)methyl]benzamide]	–	0.6	68	100
CC(C)(C)CC(=O)NCc1ccc(Cl)c(C(=O)Nc2cccc3c2cnn3-c2cccc(OC(F)(F)F)c2)c1 [Example 121, 2-Chloro-5-{[(3,3-dimethylbutanoyl)amino]methyl}-N-{1-[3-(trifluoromethoxy)phenyl]-1H-indazol-4-yl}benzamide]	–	10	48	–
Cc1cncc(-n2ncc3c(NC(=O)c4cc(CNC(=O)C(C)(C)C)ccc4C(F)(F)F)cccc32)c1 [Example 246, 5-{[(2,2-dimethylpropanoyl)amino]methyl}-N-[1-(5-methylpyridin-3-yl)-1H-indazol-4-yl]-2-(trifluoromethyl)benzamide]	–	3.5	78	89
O=C(Nc1cccc2c1cnn2-c1ccc(C(F)(F)F)cc1)c1cc(CNC(=O)C2CCC2)ccc1Cl [Example 29, 2-Chloro-5-{[(cyclobutylcarbonyl)amino]methyl}-N-{1-[4-(trifluoromethyl)phenyl]-1H-indazol-4-yl}benzamide]	4.5	6.7	–	–
Cc1ccc(-n2ncc3c(NC(=O)c4cc(CNC(=O)CC(C)(C)C)ccc4Cl)cccc32)cc1Cl [Example 127, 2-Chloro-N-[1-(3-chloro-4-methylphenyl)-1H-indazol-4-yl]-5-{[(3,3-dimethylbutanoyl)amino]methyl}benzamide]	–	4.7	64	–
Cc1ncc(-n2ncc3c(NC(=O)c4cc(CNC(=O)C(C)(C)C)ccc4Cl)cccc32)cn1 [Example 52, 2-Chloro-5-{[(2,2-dimethylpropanoyl)amino]methyl}-N-[1-(2-methylpyrimidin-5-yl)-1H-indazol-4-yl]benzamide]	3.6	20.9	–	–
CC(C)(CO)C(=O)NCc1ccc(Cl)c(C(=O)Nc2cccc3c2cnn3-c2cccc(OC(F)F)c2)c1 [Example 143, 2-Chloro-N-{1-[3-(difluoromethoxy)phenyl]-1H-indazol-4-yl}-5-{[(3-hydroxy-2,2-dimethylpropanoyl)amino]methyl}benzamide]	–	17.4	92	100
CC(C)(C)C(=O)NCc1ccc(Cl)c(C(=O)Nc2cccc3c2cnn3-c2ccc(C#N)cc2)c1 [Example 55, 2-Chloro-N-[1-(4-cyanophenyl)-1H-indazol-4-yl]-5-([(2,2-dimethylpropanoyl)amino]methyl)benzamide]	1.3	1.8	–	–
CC(C)(C)C(=O)NCc1ccc(Cl)c(C(=O)Nc2cccc3c2cnn3CCCCc2ccccc2)c1 [Example 108, 2-Chloro-5-{[(2,2-dimethylpropanoyl)amino]methyl}-N-[1-(4-phenylbutyl)-1H-indazol-4-yl]benzamide]	11.1	20.6	–	–
CC(C)(C)C(=O)NCc1ccc(Cl)c(C(=O)Nc2cccc3c2cnn3C2CCCC2)c1 [Example 97, 2-Chloro-N-(1-cyclopentyl-1H-indazol-4-yl)-5-{[(2,2-dimethylpropanoyl)amino]methyl}benzamide]	0.7	5.3	–	–
O=C(Nc1cccc2c1cnn2-c1ccc(OC(F)(F)F)cc1)c1cc(CNC(=O)C2CCCC2)ccc1Cl [Example 115, 2-Chloro-5-{[(cyclopentylcarbonyl)amino]methyl}-N-{1-[4-(trifluoromethoxy)phenyl]-1H-indazol-4-yl}benzamide]	–	1.2	61	–
